# *1 amine or outer side, *2 acyl side, *3 side chain or, on linkers, in order; H or OH if unused. Where a SMILES comes first, the peptide text is derived from it. [ ]: non-standard residue; d: D form. ξ: configuration not given here. β2hAla(2S) = C[C@@H](CN[*:1])C(=O)[*:2]; ξβ2hAla = CC(CN[*:1])C(=O)[*:2]
# Legend:
# Relaxin receptor 1 = molecular target: T1, Relaxin receptor 1 (Homo sapiens, UniProt Q9HBX9); assay: Agonist activity at RXFP1 endogenously expressed in human OVCAR-5 cells assessed as increase in IBMX-induced cAMP accumulation pretreated with IBMX for 40 mins followed by compound addition and measured after 30 mins by HTRF assay; assay type: functional, cell-based
# T1 sequence (Q9HBX9 whole entry): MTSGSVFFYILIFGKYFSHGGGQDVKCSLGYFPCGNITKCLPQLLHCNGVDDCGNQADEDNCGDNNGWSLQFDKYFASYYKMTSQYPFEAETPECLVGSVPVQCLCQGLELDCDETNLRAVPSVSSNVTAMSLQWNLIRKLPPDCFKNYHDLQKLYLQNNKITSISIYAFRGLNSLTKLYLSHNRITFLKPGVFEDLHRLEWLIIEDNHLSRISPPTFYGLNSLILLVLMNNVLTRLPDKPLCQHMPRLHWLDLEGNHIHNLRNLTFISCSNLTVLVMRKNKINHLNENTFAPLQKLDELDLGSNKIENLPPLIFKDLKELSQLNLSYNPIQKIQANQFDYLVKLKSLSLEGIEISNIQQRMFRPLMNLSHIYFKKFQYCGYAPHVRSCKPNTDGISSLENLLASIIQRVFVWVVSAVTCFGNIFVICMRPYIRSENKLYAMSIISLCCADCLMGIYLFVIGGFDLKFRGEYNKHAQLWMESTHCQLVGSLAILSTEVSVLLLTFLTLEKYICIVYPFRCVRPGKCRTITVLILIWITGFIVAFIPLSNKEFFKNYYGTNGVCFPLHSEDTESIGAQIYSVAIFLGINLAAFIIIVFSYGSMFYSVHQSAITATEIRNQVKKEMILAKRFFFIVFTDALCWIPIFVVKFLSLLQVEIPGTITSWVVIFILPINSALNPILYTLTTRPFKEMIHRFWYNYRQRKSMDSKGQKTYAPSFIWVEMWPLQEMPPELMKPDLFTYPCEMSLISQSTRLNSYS
# [1] = molecular target: T2, Relaxin receptor 1 (Homo sapiens) (UniProt Q9HBX9); assay: Agonist activity at RXFP1 endogenously expressed in human OVCAR-5 cells assessed as increase in IBMX-induced cAMP accumulation pretreated with IBMX for 40 mins followed by compound addition and measured after 30 mins by HTRF assay relative to relaxin; assay type: functional, cell-based; details: filed as agonist
# T2 sequence (whole entry): T1 sequence (Q9HBX9 whole entry)
Compound,EC50 (Relaxin receptor 1) [nM],Emax [1] [%]
CC[C@H](C)[C@H](NC(=O)[C@H](CCC(N)=O)NC(=O)[C@H](C)NC(=O)[C@H](CCCNC(=N)N)NC(=O)[C@@H](NC(=O)[C@H](CC(C)C)NC(=O)[C@H](CCC(=O)O)NC(=O)[C@H](CCCNC(=N)N)NC(=O)CNC(=O)[C@H](CO)NC(=O)[C@H](CC(C)C)NC(=O)[C@H](CCCCN)NC(=O)[C@@H](NC(=O)[C@@H](NC(C)=O)C(C)C)[C@@H](C)CC)C(C)C)C(=O)NC[C@H](C)C(=O)NC[C@H](C)C(=O)N[C@@H](CO)C(=O)NCC(=O)N[C@@H](CCSC)C(=O)N[C@@H](CO)C(=O)N[C@H](C(=O)N[C@@H](Cc1c[nH]c2ccccc12)C(=O)N[C@@H](CO)C(=O)N[C@@H](CCCCN)C(=O)N[C@@H](CCCNC(=N)N)C(=O)N[C@@H](CCCCN)C(=O)N[C@@H](CCCCN)C(N)=O)[C@@H](C)O (HELM PEPTIDE1{[ac].V.I.K.L.S.G.R.E.L.V.R.A.Q.I.[C[C@@H](CN[*:1])C(=O)[*:2]].[C[C@@H](CN[*:1])C(=O)[*:2]].S.G.M.S.T.W.S.K.R.K.K.[am]}$$$$V2.0),92.1,99
Ac-EEVIKLSGRELVRAQIAISGMSTWSKRKK-NH2,897,92
CC[C@H](C)[C@H](NC(=O)[C@H](CCC(N)=O)NC(=O)[C@H](C)NC(=O)[C@H](CCCNC(=N)N)NC(=O)[C@@H](NC(=O)[C@H](CC(C)C)NC(=O)[C@H](CCC(=O)O)NC(=O)[C@H](CCCNC(=N)N)NC(=O)CNC(=O)[C@H](CO)NC(=O)[C@H](CC(C)C)NC(=O)[C@H](CCCCN)NC(=O)[C@@H](NC(=O)[C@@H](NC(C)=O)C(C)C)[C@@H](C)CC)C(C)C)C(=O)N[C@@H](C)C(=O)NC[C@H](C)C(=O)N[C@@H](CO)C(=O)NCC(=O)N[C@@H](CCSC)C(=O)N[C@@H](CO)C(=O)N[C@H](C(=O)N[C@@H](Cc1c[nH]c2ccccc12)C(=O)N[C@@H](CO)C(=O)N[C@@H](CCCCN)C(=O)N[C@@H](CCCNC(=N)N)C(=O)N[C@@H](CCCCN)C(=O)N[C@@H](CCCCN)C(N)=O)[C@@H](C)O (HELM PEPTIDE1{[ac].V.I.K.L.S.G.R.E.L.V.R.A.Q.I.A.[C[C@@H](CN[*:1])C(=O)[*:2]].S.G.M.S.T.W.S.K.R.K.K.[am]}$$$$V2.0),393,102
CC[C@H](C)[C@H](NC(=O)[C@H](CCC(N)=O)NC(=O)[C@H](C)NC(=O)[C@H](CCCNC(=N)N)NC(=O)[C@@H](NC(=O)[C@H](CC(C)C)NC(=O)[C@H](CCC(=O)O)NC(=O)[C@H](CCCNC(=N)N)NC(=O)CNC(=O)[C@H](CO)NC(=O)[C@H](CC(C)C)NC(=O)[C@H](CCCCN)NC(=O)[C@@H](NC(=O)[C@@H](NC(=O)[C@H](CCC(=O)O)NC(=O)[C@H](CCC(=O)O)NC(C)=O)C(C)C)[C@@H](C)CC)C(C)C)C(=O)NC[C@H](C)C(=O)N[C@H](C(=O)N[C@@H](CO)C(=O)NCC(=O)N[C@@H](CCSC)C(=O)N[C@@H](CO)C(=O)N[C@H](C(=O)N[C@@H](Cc1c[nH]c2ccccc12)C(=O)N[C@@H](CO)C(=O)N[C@@H](CCCCN)C(=O)N[C@@H](CCCNC(=N)N)C(=O)N[C@@H](CCCCN)C(=O)N[C@@H](CCCCN)C(N)=O)[C@@H](C)O)[C@@H](C)CC (HELM PEPTIDE1{[ac].E.E.V.I.K.L.S.G.R.E.L.V.R.A.Q.I.[C[C@@H](CN[*:1])C(=O)[*:2]].I.S.G.M.S.T.W.S.K.R.K.K.[am]}$$$$V2.0),143,94
Ac-VIKLSGRELVRAQIAISGMSTWSKRSL-NH2,,70

# Second part, the compound after the results:
EC50 (Relaxin receptor 1) [nM],Emax [1] [%],Compound
46,98,CC[C@H](C)[C@H](NC(=O)[C@H](CCC(N)=O)NC(=O)[C@H](C)NC(=O)[C@H](CCCNC(=N)N)NC(=O)[C@@H](NC(=O)[C@H](CC(C)C)NC(=O)[C@H](CCC(=O)O)NC(=O)[C@H](CCCNC(=N)N)NC(=O)CNC(=O)[C@H](CO)NC(=O)[C@H](CC(C)C)NC(=O)[C@H](CCCCN)NC(=O)[C@@H](NC(=O)[C@@H](NC(C)=O)C(C)C)[C@@H](C)CC)C(C)C)C(=O)NC[C@H](C)C(=O)N[C@H](C(=O)N[C@@H](CCC(=O)O)C(=O)NCC(=O)N[C@@H](CCSC)C(=O)N[C@@H](CO)C(=O)N[C@@H](CCCCN)C(=O)N[C@@H](Cc1c[nH]c2ccccc12)C(=O)N[C@@H](CO)C(=O)N[C@@H](CCCCN)C(=O)N[C@@H](CCCNC(=N)N)C(=O)N[C@@H](CCCCN)C(=O)N[C@@H](CCCCN)C(N)=O)[C@@H](C)CC (HELM PEPTIDE1{[ac].V.I.K.L.S.G.R.E.L.V.R.A.Q.I.[C[C@@H](CN[*:1])C(=O)[*:2]].I.E.G.M.S.K.W.S.K.R.K.K.[am]}$$$$V2.0)
23,99,CC[C@H](C)[C@H](NC(=O)[C@H](CCC(N)=O)NC(=O)[C@H](C)NC(=O)[C@H](CCCNC(=N)N)NC(=O)[C@@H](NC(=O)[C@H](CCCCN)NC(=O)[C@H](CCC(=O)O)NC(=O)[C@H](CCCNC(=N)N)NC(=O)CNC(=O)[C@H](CCC(=O)O)NC(=O)[C@H](CC(C)C)NC(C)=O)C(C)C)C(=O)NC[C@H](C)C(=O)NC[C@H](C)C(=O)N[C@@H](CCC(=O)O)C(=O)NCC(=O)N[C@@H](CCSC)C(=O)N[C@@H](CO)C(=O)N[C@H](C(=O)N[C@@H](Cc1c[nH]c2ccccc12)C(=O)N[C@@H](CO)C(=O)N[C@@H](CCCCN)C(=O)N[C@@H](CCCNC(=N)N)C(=O)N[C@@H](CCCCN)C(=O)N[C@@H](CCCCN)C(N)=O)[C@@H](C)O (HELM PEPTIDE1{[ac].L.E.G.R.E.K.V.R.A.Q.I.[C[C@@H](CN[*:1])C(=O)[*:2]].[C[C@@H](CN[*:1])C(=O)[*:2]].E.G.M.S.T.W.S.K.R.K.K.[am]}$$$$V2.0)
32,95,CC[C@H](C)[C@H](NC(=O)[C@H](CCC(N)=O)NC(=O)[C@H](C)NC(=O)[C@H](CCCNC(=N)N)NC(=O)[C@@H](NC(=O)[C@H](CC(C)C)NC(=O)[C@H](CCC(=O)O)NC(=O)[C@H](CCCNC(=N)N)NC(=O)CNC(=O)[C@H](CO)NC(=O)[C@H](CC(C)C)NC(=O)[C@H](CCCCN)NC(=O)[C@@H](NC(=O)[C@@H](NC(=O)[C@H](CCC(=O)O)NC(=O)[C@H](CCC(=O)O)NC(C)=O)C(C)C)[C@@H](C)CC)C(C)C)C(=O)N[C@@H](C)C(=O)NC[C@H](C)C(=O)N[C@@H](CO)C(=O)NCC(=O)N[C@@H](CCSC)C(=O)N[C@@H](CO)C(=O)N[C@H](C(=O)N[C@@H](Cc1c[nH]c2ccccc12)C(=O)N[C@@H](CO)C(=O)N[C@@H](CCCCN)C(=O)N[C@@H](CCCNC(=N)N)C(=O)N[C@@H](CCCCN)C(=O)N[C@@H](CCCCN)C(=O)O)[C@@H](C)O (HELM PEPTIDE1{[ac].E.E.V.I.K.L.S.G.R.E.L.V.R.A.Q.I.A.[C[C@@H](CN[*:1])C(=O)[*:2]].S.G.M.S.T.W.S.K.R.K.K}$$$$V2.0)
17,95,CC[C@H](C)[C@H](NC(=O)[C@H](CCC(N)=O)NC(=O)[C@H](C)NC(=O)[C@H](CCCNC(=N)N)NC(=O)[C@@H](NC(=O)[C@H](CCCCN)NC(=O)[C@H](CCC(=O)O)NC(=O)[C@H](CCCNC(=N)N)NC(=O)CNC(=O)[C@H](CCC(=O)O)NC(=O)[C@H](CC(C)C)NC(=O)[C@H](CCCCN)NC(=O)[C@@H](NC(=O)[C@@H](NC(=O)[C@H](CCC(=O)O)NC(=O)[C@H](CCC(=O)O)NC(C)=O)C(C)C)[C@@H](C)CC)C(C)C)C(=O)NCC(C)C(=O)NCC(C)C(=O)N[C@@H](CCC(=O)O)C(=O)NCC(=O)N[C@@H](CCSC)C(=O)N[C@@H](CO)C(=O)N[C@@H](CCCCN)C(=O)N[C@@H](Cc1c[nH]c2ccccc12)C(=O)N[C@@H](CO)C(=O)NC[C@H](C)C(=O)N[C@@H](CCCNC(=N)N)C(=O)N[C@@H](CCCCN)C(=O)N[C@@H](CCCCN)C(=O)O (stereo partly drawn) (Ac-EEVIKLEGREKVRAQI[ξβ2hAla][ξβ2hAla]EGMSKWS[β2hAla(2S)]RKK-OH)
19.5,99,CC[C@H](C)[C@H](NC(=O)[C@H](CCC(N)=O)NC(=O)[C@H](C)NC(=O)[C@H](CCCNC(=N)N)NC(=O)[C@@H](NC(=O)[C@H](CCCCN)NC(=O)[C@H](CCC(=O)O)NC(=O)[C@H](CCCNC(=N)N)NC(=O)CNC(=O)[C@H](CCC(=O)O)NC(=O)[C@H](CC(C)C)NC(=O)[C@H](CCCCN)NC(=O)[C@@H](NC(=O)[C@@H](NC(C)=O)C(C)C)[C@@H](C)CC)C(C)C)C(=O)NC[C@H](C)C(=O)NC[C@H](C)C(=O)N[C@@H](CCC(=O)O)C(=O)NCC(=O)N[C@@H](CCSC)C(=O)N[C@@H](CO)C(=O)N[C@@H](CCCCN)C(=O)N[C@@H](Cc1c[nH]c2ccccc12)C(=O)N[C@@H](CO)C(=O)NC[C@H](C)C(=O)N[C@@H](CCCNC(=N)N)C(=O)N[C@@H](CCCCN)C(=O)N[C@@H](CCCCN)C(N)=O (Ac-VIKLEGREKVRAQI[β2hAla(2S)][β2hAla(2S)]EGMSKWS[β2hAla(2S)]RKK-NH2)

# — ChEMBL document CHEMBL4732190, “Identification of Potent and Long-Acting Single-Chain Peptide Mimetics of Human Relaxin-2 for Cardiovascular Diseases” (J Med Chem, 2021)
